Tested on: 843782-103-R-J1-PDC complex spheroid viability
Test: Anticancer human tumor 843782-103-R-J1-PDC patient-derived lung adenocarcinoma cell line growth inhibition [RAS]
Settings: for IC50: curve of first compound; for viability, T/C: stronger effect = lower value; active means viability on the fitted dose curve at most 10% of control; inactive means the rest
How it was run: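 Tumour cells grown as complex spheroids with HUVEC endothelial cells and mesenchymal stem cells, treated with RAS pathway inhibitor combinations. Each agent spans half-log steps from near clinical Cmax, or 10 microM where Cmax is unknown.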
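Further: viability read after seven days of compound exposure.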

CCC(CC)c1cc(NC2CCC(N)C2)n2nccc2n1 (centres undefined) + C#Cc1c(F)ccc2cc(O)cc(-c3ncc4c(N5CC6CCC(C5)N6)nc(OCC56CCCN5CC(F)C6)nc4c3F)c12
1850 nM: IC50 (second compound 0.0316 µM)
1900 nM: IC50 (second compound 0.1 µM)
active: viability, T/C (second compound 0.0316 µM, first compound 3.16 µM) 2.66% | viability, T/C (second compound 0.0316 µM, first compound 10 µM) 0.77% | viability, T/C (second compound 0.1 µM, first compound 3.16 µM) 2.16% | viability, T/C (second compound 0.1 µM, first compound 10 µM) 0.62% | viability, T/C (second compound 0.316 µM, first compound 3.16 µM) 2.35% | viability, T/C (second compound 0.316 µM, first compound 10 µM) 0.68% | viability, T/C (second compound 1 µM, first compound 3.16 µM) 1.42% | viability, T/C (second compound 1 µM, first compound 10 µM) 0.57% | viability, T/C (second compound 3.16 µM, first compound 3.16 µM) 2.2% | viability, T/C (second compound 3.16 µM, first compound 10 µM) 0.56% | viability, T/C (second compound 10 µM, first compound 3.16 µM) 0.51% | viability, T/C (second compound 10 µM, first compound 10 µM) 0.22%
1820 nM: IC50 (second compound 0.316 µM)
1740 nM: IC50 (second compound 1 µM)
inactive: viability, T/C (second compound 0.0316 µM, first compound 0.0316 µM) 107% | viability, T/C (second compound 0.0316 µM, first compound 0.1 µM) 102% | viability, T/C (second compound 0.0316 µM, first compound 0.316 µM) 100% | viability, T/C (second compound 0.0316 µM, first compound 1 µM) 108% | viability, T/C (second compound 0.1 µM, first compound 0.0316 µM) 112% | viability, T/C (second compound 0.1 µM, first compound 0.1 µM) 105% | viability, T/C (second compound 0.1 µM, first compound 0.316 µM) 114% | viability, T/C (second compound 0.1 µM, first compound 1 µM) 111% | viability, T/C (second compound 0.316 µM, first compound 0.0316 µM) 113% | viability, T/C (second compound 0.316 µM, first compound 0.1 µM) 109% | viability, T/C (second compound 0.316 µM, first compound 0.316 µM) 99.4% | viability, T/C (second compound 0.316 µM, first compound 1 µM) 102% | viability, T/C (second compound 1 µM, first compound 0.0316 µM) 89.2% | viability, T/C (second compound 1 µM, first compound 0.1 µM) 98% | viability, T/C (second compound 1 µM, first compound 0.316 µM) 96.7% | viability, T/C (second compound 1 µM, first compound 1 µM) 95.2% | viability, T/C (second compound 3.16 µM, first compound 0.0316 µM) 86.4% | viability, T/C (second compound 3.16 µM, first compound 0.1 µM) 83.9% | viability, T/C (second compound 3.16 µM, first compound 0.316 µM) 91.3% | viability, T/C (second compound 3.16 µM, first compound 1 µM) 62.4% | viability, T/C (second compound 10 µM, first compound 0.0316 µM) 67.2% | viability, T/C (second compound 10 µM, first compound 0.1 µM) 59.9% | viability, T/C (second compound 10 µM, first compound 0.316 µM) 64.2% | viability, T/C (second compound 10 µM, first compound 1 µM) 41.5%
642 nM: IC50 (second compound 10 µM)
1260 nM: IC50 (second compound 3.16 µM)

CC(=O)OC12COC1CC(O)C1(C)C(=O)C(O)C3=C(C)C(OC(=O)C(O)C(NC(=O)OC(C)(C)C)c4ccccc4)CC(O)(C(OC(=O)c4ccccc4)C21)C3(C)C (centres undefined) + CCn1c(-c2cc(N3CCN(C)CC3)cnc2C(C)OC)c2c3cc(ccc31)-c1csc(n1)CC(NC(=O)C1CC1C)C(=O)N1CCCC(N1)C(=O)OCC(C)(C)C2
< 31.6 nM: IC50 (second compound 0.000949 µM) | IC50 (second compound 0.003 µM) | IC50 (second compound 0.00949 µM) | IC50 (second compound 0.03 µM) | IC50 (second compound 0.0949 µM) | IC50 (second compound 0.3 µM)
active: viability, T/C (second compound 0.000949 µM, first compound 0.0316 µM) 4.09% | viability, T/C (second compound 0.000949 µM, first compound 0.1 µM) 3.3% | viability, T/C (second compound 0.000949 µM, first compound 0.316 µM) 4.43% | viability, T/C (second compound 0.000949 µM, first compound 1 µM) 4.14% | viability, T/C (second compound 0.000949 µM, first compound 3.16 µM) 4.74% | viability, T/C (second compound 0.000949 µM, first compound 10 µM) 5.86% | viability, T/C (second compound 0.003 µM, first compound 0.0316 µM) 3.09% | viability, T/C (second compound 0.003 µM, first compound 0.1 µM) 3.12% | viability, T/C (second compound 0.003 µM, first compound 0.316 µM) 3.99% | viability, T/C (second compound 0.003 µM, first compound 1 µM) 3.29% | viability, T/C (second compound 0.003 µM, first compound 3.16 µM) 6.91% | viability, T/C (second compound 0.003 µM, first compound 10 µM) 8.55% | viability, T/C (second compound 0.00949 µM, first compound 0.0316 µM) 4.74% | viability, T/C (second compound 0.00949 µM, first compound 0.1 µM) 4.97% | viability, T/C (second compound 0.00949 µM, first compound 0.316 µM) 5.9% | viability, T/C (second compound 0.00949 µM, first compound 1 µM) 4.93% | viability, T/C (second compound 0.00949 µM, first compound 3.16 µM) 5.8% | viability, T/C (second compound 0.00949 µM, first compound 10 µM) 8.1% | viability, T/C (second compound 0.03 µM, first compound 0.0316 µM) 5.08% | viability, T/C (second compound 0.03 µM, first compound 0.1 µM) 4.74% | viability, T/C (second compound 0.03 µM, first compound 0.316 µM) 7.03% | viability, T/C (second compound 0.03 µM, first compound 1 µM) 5.84% | viability, T/C (second compound 0.03 µM, first compound 3.16 µM) 6.77% | viability, T/C (second compound 0.03 µM, first compound 10 µM) 7.36% | viability, T/C (second compound 0.0949 µM, first compound 0.0316 µM) 6.75% | viability, T/C (second compound 0.0949 µM, first compound 0.1 µM) 7.55% | viability, T/C (second compound 0.0949 µM, first compound 0.316 µM) 6% | viability, T/C (second compound 0.0949 µM, first compound 1 µM) 8.09% | viability, T/C (second compound 0.0949 µM, first compound 3.16 µM) 7.2% | viability, T/C (second compound 0.0949 µM, first compound 10 µM) 7.32% | viability, T/C (second compound 0.3 µM, first compound 0.0316 µM) 6.51% | viability, T/C (second compound 0.3 µM, first compound 0.1 µM) 6.53% | viability, T/C (second compound 0.3 µM, first compound 0.316 µM) 8.66% | viability, T/C (second compound 0.3 µM, first compound 1 µM) 8.26% | viability, T/C (second compound 0.3 µM, first compound 3.16 µM) 9.04% | viability, T/C (second compound 0.3 µM, first compound 10 µM) 7.8%

Source: PubChem BioAssay AID2060883 (Molecular Pharmacology Branch, DTP, NCI, 2025)
